Values quoted from earlier work, collected in US20200404921A1, “SOIL TREATMENT WITH METAM SALTS AND ONE OR MORE OF CALCIUM THIOSULFATE, CALCIUM CHLORIDE AND CALCIUM NITRATE” (Tessenderlo Kerley, Inc., priority 2018, published 2020).

Assays:
[1] = more soluble than gypsum
soilborne disease = conditions: about 40 gallons of metam sodium per acre (190 Kg of active ingredient/ha), commercial conditions

Structure (SMILES)	solubility relative to gypsum [1] [times]	reduction of certain soilborne disease (soilborne disease) [%]
O=S([O-])([O-])=S.[Ca+2] [calcium thiosulfate]	125	–
CNC(=S)S [metam sodium, sodium methyldithiocarbamate]	–	~70
